Key:
[1] = target: PfCDPK1 (Plasmodium falciparum (isolate 3D7), UniProt P62344); assay: biochemical; conditions: read-out: PfCDPK1 (% inhibition @ 3 uM)
[2] = target: PfCDPK4 (Plasmodium falciparum (isolate 3D7), UniProt Q8IBS5); assay: biochemical; conditions: read-out: PfCDPK4 (% inhibition @ 3 uM)

Compound	inhibition at 3 µM [1]	inhibition at 3 µM [2]
Nc1ncnc2c1c(-c1ccc(Cl)cc1)nn2CC1CCNCC1 [Compound 45, 3-(4-chlorophenyl)-1-(piperidin-4-ylmethyl)-1H-pyrazolo[3,4-d]pyrimidin-4-amine]	101%	82%
O=C(CCCC1CCNCC1)Nc1nc2ccc(C(=O)c3ccccc3)cc2[nH]1 [Compound 115]	71%	84%
CCN1CCC(Cn2nc(Cc3cccc4ccccc34)c3c(N)ncnc32)CC1 [Compound 5n, 1-((1-ethylpiperidin-4-yl)methyl)-3-(naphthalen-1-ylmethyl)-1H-pyrazolo[3,4-d]pyrimidin-4-amine]	49%	27%
COc1ccc2cc(-c3nc(C(C)(C)C)n4ccnc(N)c34)ccc2c1 [Compound 71, 3-tert-butyl-1-(6-methoxynaphthalen-2-yl)imidazo[1,5-a]pyrazin-8-amine]	101%	98%
Cc1cc(-c2nn(C(C)(C)C)c3ncnc(N)c23)ccc1-c1ccccc1 [Compound 133]	79%	26%
Nc1ncnc2c1cnn2CC1CCNCC1 [Compound 99]	70%	5%
CC(C)n1nc(-c2cccc(OCc3ccccc3)c2)c2c(N)ncnc21 [Compound 7aa, 3-(3-(benzyloxy)phenyl)-1-isopropyl-1H-pyrazolo[3,4-d]pyrimidin-4-amine]	75%	18%
Cc1ccccc1COc1ccc2cc(-c3nn(C(C)C)c4ncnc(N)c34)ccc2c1 [Compound 49, 1-isopropyl-3-(6-(2-methylbenzyloxy)naphthalen-2-yl)-1H-pyrazolo[3,4-d]pyrimidin-4-amine]	88%	22%
Nc1ncnc2c1c(-c1ccc(-c3ccccc3)cc1)nn2CC1CCNCC1 [Compound 100]	101%	68%
CC(C)(C)n1nc(-c2ccc(NC(=O)Cc3ccccc3)cc2)c2c(N)ncnc21 [Compound 66, N-(4-(4-amino-1-tert-butyl-1H-pyrazolo[3,4-d]pyrimidin-3-yl)phenyl)-2-phenylacetamide]	100%	77%
NCCC(=O)Nc1nc2ccc(C(=O)c3ccccc3)cc2[nH]1 [Compound 94]	71%	51%
Nc1ncnc2c1c(I)nn2CC1CCNCC1 [Compound 98]	85%	9%
O=C(CCC1CCNCC1)Nc1nc2ccc(C(=O)c3ccccc3)cc2[nH]1 [Compound 117]	71%	74%
Nc1ncnc2c1c(-c1ccc(-c3ccccc3)c(F)c1)nn2CC1CCNCC1 [Compound 73, 3-(2-fluorobiphenyl-4-yl)-1-(piperidin-4-ylmethyl)-1H-pyrazolo[3,4-d]pyrimidin-4-amine]	87%	14%
CC(C)(C)n1nc(-c2ccc(NC(=O)c3ccccc3)cc2)c2c(N)ncnc21 [Compound 65, N-(4-(4-amino-1-tert-butyl-1H-pyrazolo[3,4-d]pyrimidin-3-yl)phenyl)benzamide]	101%	53%
CCC(=O)Nc1ccc(-c2nn(C(C)(C)C)c3ncnc(N)c23)cc1 [Compound 67, N-(4-(4-amino-1-tert-butyl-1H-pyrazolo[3,4-d]pyrimidin-3-yl)phenyl)propionamide]	96%	49%
Nc1ncnc2c1c(-c1ccc3oc(-c4ccccc4)nc3c1)nn2CC1CCNCC1 [Compound 120]	101%	90%
CS(=O)(=O)N1CCC(Cn2nc(Cc3cccc4ccccc34)c3c(N)ncnc32)CC1 [Compound 5q, 1-((1-(methylsulfonyl)piperidin-4-yl)methyl)-3-(naphthalen-1-ylmethyl)-1H-pyrazolo[3,4-d]pyrimidin-4-amine]	78%	15%
Cn1ccc2cc(-c3nn(C(C)(C)C)c4ncnc(N)c34)ccc21 [Compound 139]	99%	96%
O=C(CC1CCNCC1)Nc1nc2ccc(C(=O)c3ccccc3)cc2[nH]1 [Compound 113]	65%	61%
CC(C)n1nc(-c2ccc3c(c2)OCO3)c2c(N)ncnc21 [Compound 7u, 3-(benzo[d][1,3]dioxol-5-yl)-1-isopropyl-1H-pyrazolo[3,4-d]pyrimidin-4-amine]	94%	77%
CC(C)(C)n1nc(-c2ccc(NC(=O)C3CCCC3)cc2)c2c(N)ncnc21 [Compound 63, N-(4-(4-amino-1-tert-butyl-1H-pyrazolo[3,4-d]pyrimidin-3-yl)phenyl)cyclopentanecarboxamide]	103%	96%
CC(C)n1nc(-c2ccc3cc(OCc4ccc(Cl)cc4)ccc3c2)c2c(N)ncnc21 [Compound 56, 3-(6-(4-chlorobenzyloxy)naphthalen-2-yl)-1-isopropyl-1H-pyrazolo[3,4-d]pyrimidin-4-amine]	93%	73%

Compound	inhibition at 3 µM [1]	inhibition at 3 µM [2]
Cn1ccc2cc(-c3nc(C(C)(C)C)n4ccnc(N)c34)ccc21 [Compound 70, 3-tert-butyl-1-(1-methyl-1H-indol-5-yl)imidazo[1,5-a]pyrazin-8-amine]	100%	96%
Nc1ncnc2c1c(Cc1cccc3ccccc13)nn2Cc1c[nH]cn1 [Compound 31, 1-((1H-imidazol-4-yl)methyl)-3-(naphthalen-1-ylmethyl)-1H-pyrazolo[3,4-d]pyrimidin-4-amine]	51%	40%
CC(C)n1nc(-c2ccc3cc(OCc4ccccc4Cl)ccc3c2)c2c(N)ncnc21 [Compound 46, 3-(6-(2-chlorobenzyloxy)naphthalen-2-yl)-1-isopropyl-1H-pyrazolo[3,4-d]pyrimidin-4-amine]	95%	52%
O=C(NCCCCO)Nc1nc2ccc(C(=O)c3ccccc3)cc2[nH]1 [Compound 127]	68%	46%
CC(C)n1nc(-c2cccc(OCc3ccccc3Cl)c2)c2c(N)ncnc21 [Compound 21, 3-(3-(2-chlorobenzyloxy)phenyl)-1-isopropyl-1H-pyrazolo[3,4-d]pyrimidin-4-amine]	68%	9%
N[C@@H](Cc1ccc(O)cc1)C(=O)Nc1nc2ccc(C(=O)c3ccccc3)cc2[nH]1 [Compound 109]	54%	30%
Cn1ncc2cc(-c3nn(CC4CCNCC4)c4ncnc(N)c34)ccc21 [Compound 121]	93%	93%
CC(C)n1nc(-c2ccc3cc(OCc4cc(F)cc(Cl)c4)ccc3c2)c2c(N)ncnc21 [Compound 52, 3-(6-(3-chloro-5-fluorobenzyloxy)naphthalen-2-yl)-1-isopropyl-1H-pyrazolo[3,4-d]pyrimidin-4-amine]	93%	62%
Cc1ccc(S(=O)(=O)Nc2ccc(-c3nn(-c4ccccc4)c4ncnc(N)c34)cc2)cc1 [Compound 75, N-(4-(4-amino-1-phenyl-1H-pyrazolo[3,4-d]pyrimidin-3-yl)phenyl)-4-methylbenzenesulfonamide]	75%	5%
COC(=O)Nc1nc2ccc(C(O)c3ccccc3)cc2[nH]1 (centres unmarked) [Compound 82]	56%	4%
CC(C)(C)n1nc(Cc2cccc3ccccc23)c2c(N)ncnc21 [Compound 5d, 1-tert-butyl-3-(naphthalen-1-ylmethyl)-1H-pyrazolo[3,4-d]pyrimidin-4-amine]	76%	86%
O=C(c1ccccc1)c1ccc2nc(NC(=O)[C@@H]3CCCN3)[nH]c2c1 [Compound 107]	65%	52%
Cc1cc(-c2nn(CC3CCNCC3)c3ncnc(N)c23)ccc1-c1ccccc1 [Compound 118]	97%	81%
O=C(NCCC1CCCNC1)Nc1nc2ccc(C(=O)c3ccccc3)cc2[nH]1 (centres unmarked) [Compound 91]	73%	59%
COc1ccc2cc(-c3nn(C(C)(C)C)c4ncnc(N)c34)ccc2c1 [Compound 135]	96%	97%
NCCCCCC(=O)Nc1nc2ccc(C(=O)c3ccccc3)cc2[nH]1 [Compound 105]	71%	76%
CCCOc1ccc2cc(-c3nn(C(C)C)c4ncnc(N)c34)ccc2c1 [Compound 12, 1-isopropyl-3-(6-propoxynaphthalen-2-yl)-1H-pyrazolo[3,4-d]pyrimidin-4-amine]	95%	91%
CC(C)(C)c1nc(-c2ccc3ccccc3c2)c2c(N)nccn12 [Compound 84]	101%	99%
O=C(NCCO)Nc1nc2ccc(C(=O)c3ccccc3)cc2[nH]1 [Compound 90]	77%	64%
Nc1ncnc2c1c(-c1cnc3ccccc3c1)nn2CC1CCNCC1 [Compound 30, 1-(piperidin-4-ylmethyl)-3-(quinolin-3-yl)-1H-pyrazolo[3,4-d]pyrimidin-4-amine]	82%	86%
NCCCC(=O)Nc1nc2ccc(C(=O)c3ccccc3)cc2[nH]1 [Compound 103]	75%	58%
CC(C)(C)n1nc(-c2ccc3ncccc3c2)c2c(N)ncnc21 [Compound 143]	97%	97%
Cn1ccc2cc(-c3nn(CC4CCNCC4)c4ncnc(N)c34)ccc21 [Compound 57, 3-(1-methyl-1H-indol-5-yl)-1-(piperidin-4-ylmethyl)-1H-pyrazolo[3,4-d]pyrimidin-4-amine]	85%	82%

Reference: patent US11247972B2, “Compositions and methods for treating toxoplasmosis, cryptosporidiosis, and other apicomplexan protozoan related diseases” (University of Washington through its Center for …, priority 2010, dated 2022)
